Data on 3 compounds can be found in patent US10870647B2, “Imidazopyridine derivative, method for preparing same, and pharmaceutical composition containing same as active ingredient for preventing or treating cancer” (DAEGU-GYEONGBUK MEDICAL INNOVATION FOUNDATION, priority 2016, dated 2020).

Common to all, as to assay: Kinase selectivity, scanMAX Kinase assay panel (DiscoverX), % control at 1 uM
Common to all, as to type: binding

Assay [1] has as its target T1, scanMAX Kinase assay panel (Homo sapiens, UniProt P51955).
T1 construct: purchased DiscoverX
T1 sequence (P51955 1-445): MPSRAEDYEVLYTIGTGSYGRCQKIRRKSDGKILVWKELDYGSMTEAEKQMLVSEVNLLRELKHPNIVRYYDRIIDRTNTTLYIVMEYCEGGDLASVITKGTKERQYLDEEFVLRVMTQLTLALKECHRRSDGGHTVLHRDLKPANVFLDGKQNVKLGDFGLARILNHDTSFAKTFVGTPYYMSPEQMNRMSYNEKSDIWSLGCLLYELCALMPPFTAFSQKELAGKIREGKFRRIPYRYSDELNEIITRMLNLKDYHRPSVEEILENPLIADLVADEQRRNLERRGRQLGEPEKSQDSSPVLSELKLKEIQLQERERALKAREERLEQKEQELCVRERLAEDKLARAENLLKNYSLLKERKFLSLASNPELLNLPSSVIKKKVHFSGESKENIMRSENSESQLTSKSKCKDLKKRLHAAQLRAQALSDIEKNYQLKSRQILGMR
As to conditions: NEK2; 1 uM; read-out: Percent Control (%). The method, boiled down:
(§1)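 Activity was called for kinases showing % control under 35, calculated from compound signal relative to positive and negative controls. Each compound screened at 1 uM against the DiscoverX scanMAX panel.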

Assay [2] deals with T2, scanMAX Kinase assay panel (Homo sapiens, UniProt Q8WXR4).
T2 construct: purchased DiscoverX
T2 sequence (Q8WXR4 1-1341): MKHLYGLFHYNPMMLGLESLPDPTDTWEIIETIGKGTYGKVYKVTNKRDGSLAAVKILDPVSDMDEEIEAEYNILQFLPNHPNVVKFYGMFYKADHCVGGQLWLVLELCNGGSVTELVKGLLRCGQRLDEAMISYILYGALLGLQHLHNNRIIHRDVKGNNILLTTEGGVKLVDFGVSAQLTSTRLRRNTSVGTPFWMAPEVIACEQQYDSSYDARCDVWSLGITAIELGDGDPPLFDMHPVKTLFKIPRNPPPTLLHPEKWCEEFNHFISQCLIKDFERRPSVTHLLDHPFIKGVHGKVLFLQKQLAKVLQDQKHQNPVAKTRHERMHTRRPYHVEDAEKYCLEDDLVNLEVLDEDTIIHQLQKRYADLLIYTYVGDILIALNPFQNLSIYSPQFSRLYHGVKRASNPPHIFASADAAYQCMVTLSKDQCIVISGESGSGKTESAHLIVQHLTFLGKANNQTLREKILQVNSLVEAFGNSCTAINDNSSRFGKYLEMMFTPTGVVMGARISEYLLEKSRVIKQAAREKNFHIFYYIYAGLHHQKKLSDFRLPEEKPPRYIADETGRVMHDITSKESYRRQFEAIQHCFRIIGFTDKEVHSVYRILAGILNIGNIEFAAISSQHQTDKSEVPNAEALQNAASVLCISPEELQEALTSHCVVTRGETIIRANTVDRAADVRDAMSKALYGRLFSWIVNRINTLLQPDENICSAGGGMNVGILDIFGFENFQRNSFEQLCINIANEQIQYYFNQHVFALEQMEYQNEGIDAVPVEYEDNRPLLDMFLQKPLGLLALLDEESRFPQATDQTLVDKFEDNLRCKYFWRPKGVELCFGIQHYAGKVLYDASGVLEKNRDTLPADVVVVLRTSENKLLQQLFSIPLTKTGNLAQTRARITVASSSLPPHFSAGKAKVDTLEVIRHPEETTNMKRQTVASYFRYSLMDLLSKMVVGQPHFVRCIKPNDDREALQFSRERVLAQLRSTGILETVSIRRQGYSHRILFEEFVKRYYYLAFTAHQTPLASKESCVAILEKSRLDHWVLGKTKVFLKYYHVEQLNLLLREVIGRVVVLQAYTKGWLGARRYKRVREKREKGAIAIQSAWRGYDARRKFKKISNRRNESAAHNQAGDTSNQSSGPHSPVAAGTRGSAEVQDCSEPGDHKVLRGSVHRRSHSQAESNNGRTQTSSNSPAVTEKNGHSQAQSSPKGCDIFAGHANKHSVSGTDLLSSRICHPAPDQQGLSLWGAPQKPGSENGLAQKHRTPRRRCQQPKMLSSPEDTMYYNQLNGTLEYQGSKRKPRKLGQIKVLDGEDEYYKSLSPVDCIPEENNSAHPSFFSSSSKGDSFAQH
Conditions: MYO3B; 1 uM; read-out: Percent Control (%). In outline:
as §1

The target in assay [3] is T3, scanMAX Kinase assay panel (Homo sapiens, UniProt P35916).
T3 construct: purchased DiscoverX
T3 sequence (P35916 25-1363): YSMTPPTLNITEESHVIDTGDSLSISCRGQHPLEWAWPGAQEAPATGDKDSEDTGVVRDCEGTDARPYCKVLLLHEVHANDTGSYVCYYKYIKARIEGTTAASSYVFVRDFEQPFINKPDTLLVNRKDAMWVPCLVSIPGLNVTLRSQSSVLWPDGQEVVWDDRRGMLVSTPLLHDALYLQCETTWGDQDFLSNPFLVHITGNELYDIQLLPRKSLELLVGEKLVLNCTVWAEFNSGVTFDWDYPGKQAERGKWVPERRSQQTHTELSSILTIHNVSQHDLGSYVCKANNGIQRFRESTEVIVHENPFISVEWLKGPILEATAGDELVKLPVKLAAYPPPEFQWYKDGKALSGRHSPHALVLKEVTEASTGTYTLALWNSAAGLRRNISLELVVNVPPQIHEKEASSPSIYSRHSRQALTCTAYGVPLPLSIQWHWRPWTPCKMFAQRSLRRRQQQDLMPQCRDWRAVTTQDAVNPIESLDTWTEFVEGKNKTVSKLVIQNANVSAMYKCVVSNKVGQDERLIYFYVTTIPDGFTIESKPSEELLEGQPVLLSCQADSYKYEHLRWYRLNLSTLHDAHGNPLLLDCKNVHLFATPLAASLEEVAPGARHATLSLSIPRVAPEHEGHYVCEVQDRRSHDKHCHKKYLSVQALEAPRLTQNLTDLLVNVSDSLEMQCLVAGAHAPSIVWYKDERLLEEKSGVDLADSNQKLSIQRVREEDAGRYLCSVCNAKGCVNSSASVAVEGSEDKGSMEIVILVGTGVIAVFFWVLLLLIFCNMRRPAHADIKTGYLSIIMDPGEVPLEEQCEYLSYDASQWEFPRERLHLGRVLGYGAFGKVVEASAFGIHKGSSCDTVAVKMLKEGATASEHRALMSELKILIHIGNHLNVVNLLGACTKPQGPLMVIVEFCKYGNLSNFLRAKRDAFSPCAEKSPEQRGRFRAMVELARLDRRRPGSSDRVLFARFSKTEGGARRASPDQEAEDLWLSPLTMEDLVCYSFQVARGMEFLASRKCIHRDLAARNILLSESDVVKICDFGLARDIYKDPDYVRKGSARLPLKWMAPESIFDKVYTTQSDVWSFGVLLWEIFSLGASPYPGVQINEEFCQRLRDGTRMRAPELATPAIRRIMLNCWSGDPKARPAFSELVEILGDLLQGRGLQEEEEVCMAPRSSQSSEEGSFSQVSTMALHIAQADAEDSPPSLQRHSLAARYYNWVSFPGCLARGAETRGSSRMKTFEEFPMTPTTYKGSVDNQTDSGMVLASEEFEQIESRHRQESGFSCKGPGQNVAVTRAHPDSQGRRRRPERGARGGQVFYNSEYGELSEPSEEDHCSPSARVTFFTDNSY
Conditions: FLT4; 1 uM; read-out: Percent Control (%). In outline:
as §1

Assay [4] has as its target T4, scanMAX Kinase assay panel (Homo sapiens, UniProt Q13627).
T4 construct: purchased DiscoverX
Conditions: DYRK1A; 1 uM; read-out: Percent Control (%). In outline:
as §1

In assay [5] the target is T5, scanMAX Kinase assay panel (Homo sapiens, UniProt P57059).
T5 construct: purchased DiscoverX
T5 sequence (P57059 whole entry): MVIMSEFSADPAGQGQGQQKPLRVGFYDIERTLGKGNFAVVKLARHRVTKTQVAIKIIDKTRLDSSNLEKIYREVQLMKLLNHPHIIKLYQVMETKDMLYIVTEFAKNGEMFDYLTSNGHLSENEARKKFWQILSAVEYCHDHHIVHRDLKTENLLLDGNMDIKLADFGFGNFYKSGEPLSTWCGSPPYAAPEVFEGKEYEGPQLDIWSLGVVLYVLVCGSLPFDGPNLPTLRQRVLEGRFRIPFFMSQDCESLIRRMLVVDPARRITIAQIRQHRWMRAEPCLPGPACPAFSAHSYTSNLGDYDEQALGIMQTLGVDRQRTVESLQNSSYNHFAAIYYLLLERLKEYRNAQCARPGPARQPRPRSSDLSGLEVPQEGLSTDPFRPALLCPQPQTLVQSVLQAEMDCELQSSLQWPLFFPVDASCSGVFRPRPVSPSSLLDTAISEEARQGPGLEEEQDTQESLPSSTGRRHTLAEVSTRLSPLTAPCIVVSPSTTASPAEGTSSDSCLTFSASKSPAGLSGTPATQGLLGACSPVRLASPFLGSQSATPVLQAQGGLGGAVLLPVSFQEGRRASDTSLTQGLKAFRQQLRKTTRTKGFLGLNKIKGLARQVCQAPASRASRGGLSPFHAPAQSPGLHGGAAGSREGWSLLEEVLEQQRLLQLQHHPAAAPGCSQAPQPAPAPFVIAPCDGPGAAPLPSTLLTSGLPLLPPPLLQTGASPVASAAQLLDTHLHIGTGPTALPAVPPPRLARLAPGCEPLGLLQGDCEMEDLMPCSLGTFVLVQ
Conditions: SIK; 1 uM; read-out: Percent Control (%). In outline:
as §1

Assay [6] addresses T6, scanMAX Kinase assay panel (Homo sapiens, UniProt P49841).
T6 construct: purchased DiscoverX
Conditions: GSK3B; 1 uM; read-out: Percent Control (%). In outline: as §1

Assay [7] has as its target T7, scanMAX Kinase assay panel (Homo sapiens, UniProt Q9H2G2).
T7 construct: purchased DiscoverX
Conditions: SLK; 1 uM; read-out: Percent Control (%). In outline: as §1

Assay [8] concerns the target T8, scanMAX Kinase assay panel (Homo sapiens, UniProt P00519, Y253F).
T8 construct: purchased DiscoverX
As to conditions: ABL1 (Y253F)-phosphorylated; 1 uM; read-out: Percent Control (%). In outline: as §1

Assay [9] addresses T9, scanMAX Kinase assay panel (Homo sapiens, UniProt Q5S007).
T9 construct: purchased DiscoverX
Conditions: LRRK2; 1 uM; read-out: Percent Control (%). The method, boiled down:
as §1

T9 sequence (Q5S007 whole entry): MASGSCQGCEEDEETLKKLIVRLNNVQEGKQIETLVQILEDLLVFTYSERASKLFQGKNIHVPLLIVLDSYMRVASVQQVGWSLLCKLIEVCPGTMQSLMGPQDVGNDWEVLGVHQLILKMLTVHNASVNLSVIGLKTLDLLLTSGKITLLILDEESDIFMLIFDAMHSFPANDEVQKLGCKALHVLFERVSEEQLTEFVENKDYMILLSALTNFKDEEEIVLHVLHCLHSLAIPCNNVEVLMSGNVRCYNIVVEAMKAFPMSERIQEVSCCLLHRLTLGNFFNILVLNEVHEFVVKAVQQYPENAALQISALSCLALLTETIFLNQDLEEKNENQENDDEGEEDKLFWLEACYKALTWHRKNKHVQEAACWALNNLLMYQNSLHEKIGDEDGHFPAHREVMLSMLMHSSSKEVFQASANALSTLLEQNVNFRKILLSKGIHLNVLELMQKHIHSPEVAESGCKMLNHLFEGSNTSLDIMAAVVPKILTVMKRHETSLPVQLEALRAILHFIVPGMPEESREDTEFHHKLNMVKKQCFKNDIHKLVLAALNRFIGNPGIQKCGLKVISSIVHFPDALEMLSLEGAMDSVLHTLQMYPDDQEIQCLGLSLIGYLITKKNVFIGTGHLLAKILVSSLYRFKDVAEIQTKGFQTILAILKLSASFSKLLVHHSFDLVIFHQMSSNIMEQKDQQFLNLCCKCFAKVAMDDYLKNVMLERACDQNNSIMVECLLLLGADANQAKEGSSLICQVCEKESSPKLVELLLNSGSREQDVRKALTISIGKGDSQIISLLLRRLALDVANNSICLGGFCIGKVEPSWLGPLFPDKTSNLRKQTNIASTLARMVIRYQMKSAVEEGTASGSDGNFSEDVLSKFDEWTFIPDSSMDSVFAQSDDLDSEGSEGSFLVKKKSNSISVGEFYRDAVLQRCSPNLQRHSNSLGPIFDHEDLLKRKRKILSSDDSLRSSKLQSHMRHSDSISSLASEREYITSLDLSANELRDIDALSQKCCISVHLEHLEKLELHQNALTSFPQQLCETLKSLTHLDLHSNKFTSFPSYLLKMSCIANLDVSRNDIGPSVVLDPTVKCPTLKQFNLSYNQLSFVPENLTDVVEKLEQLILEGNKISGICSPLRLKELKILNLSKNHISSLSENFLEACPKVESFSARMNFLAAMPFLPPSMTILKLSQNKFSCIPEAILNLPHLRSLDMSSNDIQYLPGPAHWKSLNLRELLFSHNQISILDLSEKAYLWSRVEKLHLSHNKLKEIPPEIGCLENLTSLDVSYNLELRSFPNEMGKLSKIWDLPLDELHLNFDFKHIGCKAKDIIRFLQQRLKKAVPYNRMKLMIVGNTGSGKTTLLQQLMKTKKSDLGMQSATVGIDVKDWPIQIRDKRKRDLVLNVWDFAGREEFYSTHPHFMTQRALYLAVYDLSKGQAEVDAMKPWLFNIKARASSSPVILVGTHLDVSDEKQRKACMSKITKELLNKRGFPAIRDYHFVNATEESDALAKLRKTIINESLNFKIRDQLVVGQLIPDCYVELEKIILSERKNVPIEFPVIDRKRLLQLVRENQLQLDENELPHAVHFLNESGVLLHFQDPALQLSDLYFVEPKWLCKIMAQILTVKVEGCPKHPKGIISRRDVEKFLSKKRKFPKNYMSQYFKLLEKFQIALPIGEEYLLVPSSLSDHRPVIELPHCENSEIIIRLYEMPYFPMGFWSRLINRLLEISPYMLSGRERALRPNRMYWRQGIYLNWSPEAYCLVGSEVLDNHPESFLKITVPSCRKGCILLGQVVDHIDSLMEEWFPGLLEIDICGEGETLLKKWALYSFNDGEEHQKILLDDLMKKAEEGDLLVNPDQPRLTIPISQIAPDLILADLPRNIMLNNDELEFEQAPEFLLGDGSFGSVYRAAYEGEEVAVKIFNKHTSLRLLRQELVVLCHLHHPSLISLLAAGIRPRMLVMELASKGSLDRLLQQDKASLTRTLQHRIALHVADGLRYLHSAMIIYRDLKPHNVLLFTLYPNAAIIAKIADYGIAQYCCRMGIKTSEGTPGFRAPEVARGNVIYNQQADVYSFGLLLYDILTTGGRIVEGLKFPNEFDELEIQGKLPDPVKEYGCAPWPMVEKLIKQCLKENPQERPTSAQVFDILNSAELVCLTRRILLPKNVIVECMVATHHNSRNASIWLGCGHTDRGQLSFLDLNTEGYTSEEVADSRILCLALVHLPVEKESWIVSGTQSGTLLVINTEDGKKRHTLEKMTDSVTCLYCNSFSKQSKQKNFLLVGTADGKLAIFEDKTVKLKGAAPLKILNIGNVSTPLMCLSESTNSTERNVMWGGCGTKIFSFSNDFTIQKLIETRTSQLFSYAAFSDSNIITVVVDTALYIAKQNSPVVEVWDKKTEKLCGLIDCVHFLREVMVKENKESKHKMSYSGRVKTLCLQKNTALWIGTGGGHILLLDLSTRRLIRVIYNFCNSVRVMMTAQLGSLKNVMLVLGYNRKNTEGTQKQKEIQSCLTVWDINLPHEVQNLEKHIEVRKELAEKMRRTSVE
T6 sequence (P49841 whole entry): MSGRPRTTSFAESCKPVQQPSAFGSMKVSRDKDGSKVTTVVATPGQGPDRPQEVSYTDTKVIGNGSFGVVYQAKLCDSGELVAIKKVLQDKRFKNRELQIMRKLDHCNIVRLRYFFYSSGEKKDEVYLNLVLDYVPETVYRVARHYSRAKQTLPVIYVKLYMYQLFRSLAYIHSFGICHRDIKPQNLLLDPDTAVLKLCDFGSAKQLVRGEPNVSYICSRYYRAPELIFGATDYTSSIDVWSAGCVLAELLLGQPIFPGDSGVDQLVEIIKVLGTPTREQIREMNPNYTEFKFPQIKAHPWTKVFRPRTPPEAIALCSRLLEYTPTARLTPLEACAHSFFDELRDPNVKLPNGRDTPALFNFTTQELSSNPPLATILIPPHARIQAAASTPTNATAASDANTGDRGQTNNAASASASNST

As to `Cc1ccc(C(=O)Nc2ccc(CN3CCN(C)CC3)c(C(F)(F)F)c2)cc1C#Cc1cnc2c(Nc3cnn(C)c3)cccn12` [Example 1, 4-methyl-3-((8-((1-methyl-1H-pyrazol-4-yl)amino)imidazo[1,2-a]pyridin-3-yl)ethynyl)-N-(4-((4-methylpiperazin-1-yl)methyl)-3-(trifluoromethyl)phenyl)benzamide], the remaining binding at 1 µM worked out at 80% in assay [1]; 35% in [2]; 1% in [3]; 100% in assay [4]; 0% in assay [5]; 79% in assay [6]. The remaining binding at 1 µM in [7] is 0%; in assay [8] it was 0%; in assay [9], 10%.

For `Cc1ccc(NC(=O)C2(C(=O)Nc3ccc(F)cc3)CC2)cc1C#Cc1cnc2c(Nc3cnn(C(C)C)c3)cccn12` [Example 78], the remaining binding at 1 µM in assay [1] came to 100%; in [2], 92%; in [3], 26%; in assay [4], 100%; in [5], 25%; in assay [6] it was 96%. Also, the remaining binding at 1 µM in assay [7] is 11%; in assay [8], 88%; in assay [9] it was 95%.

As to `Cc1cn(-c2cc(NC(=O)c3ccc(C)c(C#Cc4cnc5c(Nc6cnn(C)c6)cccn45)c3)cc(C(F)(F)F)c2)cn1` [Example 12, 4-methyl-N-(3-(4-methyl-1H-imidazol-1-yl)-5-(trifluoromethyl)phenyl)-3-((8-((1-methyl-1H-pyrazol-4-yl)amino)imidazo[1,2-a]pyridin-3-yl)ethynyl)benzamide], the remaining binding at 1 µM in [1] came out at 100%; in [2] it was 81%; in assay [3] it was 6%; in assay [4], 97%; in assay [5], 5%; in [6], 85%. In addition, the results for the remaining binding at 1 µM in [7], in assay [8] and in assay [9] were 5%, 10% and 100%, respectively.
